# Experimental data from the supplement of paper PMC10307832.
# What was measured:
# Assay in all cases: relative viability (nuclei count vs DMSO), 5 days (fraction); higher = more cells survive
# Carboplatin + Trametinib = compound: C1CC(C1)(C(=O)O)C(=O)O.[NH2-].[NH2-].[Pt+2] [Carboplatin] + CC(=O)Nc1cccc(-n2c(=O)n(C3CC3)c(=O)c3c(Nc4ccc(I)cc4F)n(C)c(=O)c(C)c32)c1 [Trametinib] (partner 0.02 µM)
# Summary of the method: (§1)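 Lung cancer cell lines were pin-tool dosed in 1536-well plates on the day after seeding, with either a lone drug or a fixed anchor-drug dose plus five library-drug doses (not always all listed) in √10 steps. Nuclei were counted on 4× images after 5 days. Relative viability is the ratio of treated-well to vehicle-well nuclei counts, with each value a median of duplicate plates.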
# Carboplatin + Pictilisib = compound: C1CC(C1)(C(=O)O)C(=O)O.[NH2-].[NH2-].[Pt+2] [Carboplatin] + CS(=O)(=O)N1CCN(Cc2cc3nc(-c4cccc5[nH]ncc45)nc(N4CCOCC4)c3s2)CC1 [Pictilisib] (partner 1 µM)
# Summary of the method: as §1
# GSK126 + Alpelisib = compound: CC[C@H](C)N1C=C(C2=C(C=C(C=C21)C3=CN=C(C=C3)N4CCNCC4)C(=O)NCC5=C(C=C(NC5=O)C)C)C [GSK126] + Cc1nc(NC(=O)N2CCC[C@H]2C(N)=O)sc1-c1ccnc(C(C)(C)C(F)(F)F)c1 [Alpelisib] (partner 2 µM)
# Summary of the method: as §1
# MLN4924 + Phenformin = compound: NS(=O)(=O)OC[C@@H]1C[C@@H](n2ccc3c(N[C@H]4CCc5ccccc54)ncnc32)C[C@@H]1O [MLN4924] + N=C(N)NC(=N)NCCc1ccccc1 [Phenformin] (partner 250 µM)
# Summary of the method: as §1
Cell Line,relative viability (Carboplatin + Trametinib; first compound 0.08 µM),relative viability (Carboplatin + Trametinib; first compound 0.253 µM),relative viability (Carboplatin + Trametinib; first compound 0.8 µM),relative viability (Carboplatin + Trametinib; first compound 2.53 µM),relative viability (Carboplatin + Trametinib; first compound 8 µM),relative viability (Carboplatin + Pictilisib; first compound 0.08 µM),relative viability (Carboplatin + Pictilisib; first compound 0.253 µM),relative viability (Carboplatin + Pictilisib; first compound 0.8 µM),relative viability (Carboplatin + Pictilisib; first compound 2.53 µM),relative viability (Carboplatin + Pictilisib; first compound 8 µM),relative viability (GSK126 + Alpelisib; first compound 0.08 µM),relative viability (GSK126 + Alpelisib; first compound 0.253 µM),relative viability (GSK126 + Alpelisib; first compound 0.8 µM),relative viability (GSK126 + Alpelisib; first compound 2.53 µM),relative viability (GSK126 + Alpelisib; first compound 8 µM),relative viability (MLN4924 + Phenformin; first compound 0.04 µM),relative viability (MLN4924 + Phenformin; first compound 0.1265 µM),relative viability (MLN4924 + Phenformin; first compound 0.4 µM),relative viability (MLN4924 + Phenformin; first compound 1.265 µM),relative viability (MLN4924 + Phenformin; first compound 4 µM)
201T,0.833,0.693,0.699,0.714,0.694,0.69,0.667,0.736,0.684,0.634,0.999,1.07,1.02,1.05,1.1,0.553,0.555,0.43,0.278,0.327
A549,–,–,–,–,–,0.579,0.51,0.527,0.459,0.125,0.917,0.75,0.749,0.826,0.796,0.0967,0.154,0.0425,0.0445,0.0437
A-427,0.85,0.812,0.747,0.81,0.739,0.773,0.768,0.629,0.694,0.732,1.12,1.07,1.05,1.16,1.06,0.193,0.165,0.171,0.146,0.151
ABC-1,–,–,–,–,–,0.749,0.783,0.782,0.68,0.535,1.19,1.31,1.02,1.11,1.01,0.274,0.298,0.229,0.212,0.222
BEN,1.2,0.928,0.97,0.893,0.865,0.69,0.587,0.515,0.525,0.609,1.1,0.996,1.04,1.16,0.734,0.214,0.185,0.218,0.183,0.145
CAL-12T,0.385,0.352,0.299,0.33,0.365,0.484,0.398,0.345,0.376,0.486,1.31,1.3,1.08,1.22,1.39,0.511,0.511,0.292,0.214,0.129
COR-L23,0.619,0.645,0.559,0.509,0.229,0.933,0.782,0.735,0.512,0.253,0.814,0.826,0.792,0.755,0.647,0.42,0.332,0.326,0.133,0.0871
COR-L 105,0.472,0.445,0.441,0.456,0.442,0.403,0.391,0.422,0.427,0.34,0.984,1.03,0.927,1.02,0.966,0.567,0.366,0.325,0.244,0.301
Calu-6,–,–,–,–,–,0.914,0.906,0.823,0.739,0.486,1.04,0.983,1,1.01,1.07,–,–,–,–,–
ChaGo-K-1,0.857,0.917,0.831,0.717,0.546,1.01,0.713,0.615,0.463,0.376,–,–,–,–,–,0.315,0.298,0.24,0.199,0.176
EBC-1,–,–,–,–,–,0.392,0.344,0.363,0.365,0.358,1.03,0.792,0.783,0.729,0.762,–,–,–,–,–
EKVX,0.324,0.342,0.332,0.359,0.327,0.452,0.422,0.413,0.381,0.387,0.961,0.92,0.819,0.813,0.746,0.228,0.221,0.239,0.175,0.138
EMC-BAC-2,0.899,0.825,0.924,0.832,0.686,0.48,0.538,0.476,0.56,0.466,0.785,0.77,0.718,0.731,0.765,0.37,0.424,0.296,0.193,0.218
EPLC-272H,0.302,0.317,0.334,0.273,0.303,0.373,0.305,0.313,0.322,0.349,1.05,0.997,0.919,0.951,0.902,0.343,0.325,0.0478,0.103,0.126
H3255,0.699,0.83,0.754,0.588,0.474,0.54,0.504,0.375,0.407,0.425,0.716,0.679,0.847,0.643,0.738,0.374,0.331,0.265,0.264,0.325
HARA,0.68,0.865,0.917,0.412,0.607,0.424,0.341,0.387,0.382,0.391,0.961,0.804,0.783,0.738,0.788,0.35,0.355,0.177,0.0555,0.0476
HCC-15,0.371,0.399,0.381,0.391,0.371,0.781,0.715,0.749,0.702,0.498,0.915,0.88,0.816,0.858,0.759,0.319,0.191,0.145,0.0825,0.0982
